We go through 17 compounds from patent publication US11878970B2, “Allosteric chromenone inhibitors of phosphoinositide 3-kinase (PI3K) for the treatment of disease” (Petra Pharma Corporation, priority 2021, dated 2024).

pIC50: −log10 of the molar value. A value given as a limit tells only on which side of the number the result lay.

For assay [1], the target named is T1, PI3K-α (PIK3CA) wild-type (WT), p110α/p85α complex (Homo sapiens, UniProt P42336).
T1 construct: Recombinant, catalytically active human full length PIK3KA Wild-type and H1047R mutant; 6×His (N); purchased EMD Millipore Sigma 14-602M
The assay is described as follows: PI3K-alpha kinase (PIK3CA) biochemical activity, ADP-Glo, wild-type. The procedure, abridged:
(§1)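 ADP formation measured by ADP-Glo luminescence after reaction at 27 °C to about 10% ATP turnover, using 20 uM ATP, 50 uM PIP2diC8 or soy PI lipid, HEPES pH 7.4 with MgCl2. Enzyme (1-5 nM WT or H1047R p110α/p85α) and compound preincubated 1 h first; 10-point 1:3 curves fitted four-parameter for IC50.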
In general terms: ADP-Glo turns the ADP formed in a reaction into a luminescent signal.

Assay [2] has as its target T2, PI3K-α (PIK3CA) H1047R mutant, p110α/p85α complex (Homo sapiens, UniProt P42336, H1047R).
T2 construct: Recombinant, catalytically active human full length PIK3KA Wild-type and H1047R mutant; 6×His (N); purchased EMD Millipore Sigma 14-792M
Briefly: PI3K-alpha kinase (PIK3CA) biochemical activity, ADP-Glo, H1047R mutant. An outline of the steps: as §1

Assay [3] addresses PI3K-α (PIK3CA) in MDA-MB-453 cells (Homo sapiens, UniProt P42336). The assay is described as follows: PI3K-alpha kinase (PIK3CA) in vitro cell based assay, MDA-MB-453 cells, SureFire Ultra AlphaLisa. The following applies: read-out: PI3K-α (PIK3CA) in vitro cell based assay IC50. As for the experimental part: PI3K-Alpha Kinase (PIK3CA) Activity In Vitro Cell Based Assay and Determining IC50 Values for Inhibitors
The MDA-MB-453 (ATCC-HTB-131) cell line was obtained from the American Type Culture Collection (Manassas, VA). Cells were maintained in Dulbecco's Modified Eagle Media (DMEM, Gibco 11965-092) supplemented with 10% Fetal Bovine Serum, heat inactivated (FBS HI, Gibco 10082-147), 1× non-essential amino acids (NEAA, Gibco 11140-050), and 1 mM sodium pyruvate (Gibco 11360-070). Cultures were maintained in a humidified incubator at 37° C. under 5% CO2/95% air.
For compound testing in 0% FBS, MDA-MB-453 cells were seeded at a density of 1.5×10^4 cells per well in white 384-well plates in 20 μl of Minimum Essential Media (MEM) assay media with 1×NEAA, 1 mM sodium pyruvate, and 1 μg/mL human insulin (Sigma I9278). Compounds dissolved in 10 mM stock solutions in DMSO were serially diluted 1:3 in DMSO to generate a 10-point dilution series and plated using an acoustic liquid handler system (Echo 550 Series Liquid Handler, Labcyte). A 5× intermediate compound dilution plate in MEM with 1×NEAA and 1 mM sodium pyruvate (150 μM starting compound concentration in 1.5% DMSO) was then prepared. Five μl of the intermediate serially diluted compounds were added to the cell plate to final concentrations ranging from […] in 0.3% DMSO. 0.3% DMSO alone was used to establish the maximum (MAX) signal and GDC-0032 at a final concentration of 1 μM was used as a reference compound for the minimum (MIN) signal. After 3 hours treatment, the medium was removed, and the cells lysed in 10 μL of 1× SureFire Lysis buffer with shaking for 10 minutes at room temperature. The Acceptor Mix (Reaction Buffer 1+Reaction Buffer 2+Activation Buffer+SureFire Ultra Acceptor Beads) was prepared by diluting Activation buffer 25-fold in combined Reaction Buffer 1 and Reaction Buffer 2. The Acceptor beads were diluted 50-fold in the combined Reaction Buffers. Five μL of Acceptor Mix was added to each well, the plate was sealed and covered with foil and incubated for 1 hour at room temperature. The Donor Mix (dilution buffer+SureFire Ultra Donor Beads) was prepared by diluting Donor Beads 50-fold in dilution buffer. Five μL of the Donor Mix was added to each well and the plate sealed and covered with foil and incubated for 1 hour at room temperature in the dark. The plates were read on a Neo2 plate reader instrument from Biotek using standard AlphaLisa settings. Compounds were tested in duplicate and the average % inhibition at each compound concentration was used to generate a single dose response curve. The data were processed using the Genedata-Screener tool. Relative IC50 values were determined using luminescence units by calculating percent inhibition with respect to the in-plate “MIN” (GDC-0032 reference control) and “MAX” (DMSO) controls. The data was analyzed using a 4-parameter nonlinear logistic equation (four-parameter logistic concentration-response curve): Y=bottom+[(top−bottom)/1+(X/IC50)slope] where Y=% inhibition, X=concentration of inhibitor, bottom=minimum value of y attained by curve-fit, top=maximum value of y attained by curve-fit and slope=steepness of curve at the IC50. % Inhibition=[(signal at X−median Min)/(median Max−median Min)]×100 IC50: concentration of compound that reduces a given response (ligand binding, enzyme response) by 50%. Relative IC50: concentration giving half the compound's maximum response.
On the technique in general: Bead proximity is the source of the signal in Alpha formats.

The mark [4] stands for this setting: PIP2diC8 lipid substrate (footnote 1).

T2 sequence (P42336 whole entry H1047R): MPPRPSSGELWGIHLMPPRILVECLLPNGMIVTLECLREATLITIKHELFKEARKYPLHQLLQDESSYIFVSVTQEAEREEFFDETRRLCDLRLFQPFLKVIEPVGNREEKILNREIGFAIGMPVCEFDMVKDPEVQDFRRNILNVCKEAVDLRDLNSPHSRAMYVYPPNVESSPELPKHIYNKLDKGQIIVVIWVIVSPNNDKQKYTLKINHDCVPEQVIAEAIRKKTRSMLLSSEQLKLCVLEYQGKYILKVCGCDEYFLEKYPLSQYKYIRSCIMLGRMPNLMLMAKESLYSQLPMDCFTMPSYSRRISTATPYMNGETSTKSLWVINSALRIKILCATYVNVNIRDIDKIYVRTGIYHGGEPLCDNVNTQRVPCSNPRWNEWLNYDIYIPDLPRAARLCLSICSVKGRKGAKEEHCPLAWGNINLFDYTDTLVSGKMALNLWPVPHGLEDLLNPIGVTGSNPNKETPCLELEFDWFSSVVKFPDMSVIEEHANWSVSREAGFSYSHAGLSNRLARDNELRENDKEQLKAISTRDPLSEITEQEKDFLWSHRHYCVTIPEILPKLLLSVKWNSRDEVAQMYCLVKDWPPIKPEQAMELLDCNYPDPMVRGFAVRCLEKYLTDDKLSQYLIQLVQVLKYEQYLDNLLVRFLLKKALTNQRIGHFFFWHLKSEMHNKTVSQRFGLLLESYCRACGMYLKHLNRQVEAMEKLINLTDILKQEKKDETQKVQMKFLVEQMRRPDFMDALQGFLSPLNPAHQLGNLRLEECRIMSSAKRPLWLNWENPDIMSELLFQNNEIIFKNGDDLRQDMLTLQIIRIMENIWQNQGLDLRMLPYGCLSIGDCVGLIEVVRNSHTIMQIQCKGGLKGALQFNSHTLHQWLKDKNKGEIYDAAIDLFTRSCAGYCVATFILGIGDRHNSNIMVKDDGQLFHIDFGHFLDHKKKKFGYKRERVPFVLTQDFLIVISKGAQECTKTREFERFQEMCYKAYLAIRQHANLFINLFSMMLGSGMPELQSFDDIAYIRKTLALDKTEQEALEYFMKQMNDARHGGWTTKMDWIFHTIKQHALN
T2 sequence (P27986 whole entry partner): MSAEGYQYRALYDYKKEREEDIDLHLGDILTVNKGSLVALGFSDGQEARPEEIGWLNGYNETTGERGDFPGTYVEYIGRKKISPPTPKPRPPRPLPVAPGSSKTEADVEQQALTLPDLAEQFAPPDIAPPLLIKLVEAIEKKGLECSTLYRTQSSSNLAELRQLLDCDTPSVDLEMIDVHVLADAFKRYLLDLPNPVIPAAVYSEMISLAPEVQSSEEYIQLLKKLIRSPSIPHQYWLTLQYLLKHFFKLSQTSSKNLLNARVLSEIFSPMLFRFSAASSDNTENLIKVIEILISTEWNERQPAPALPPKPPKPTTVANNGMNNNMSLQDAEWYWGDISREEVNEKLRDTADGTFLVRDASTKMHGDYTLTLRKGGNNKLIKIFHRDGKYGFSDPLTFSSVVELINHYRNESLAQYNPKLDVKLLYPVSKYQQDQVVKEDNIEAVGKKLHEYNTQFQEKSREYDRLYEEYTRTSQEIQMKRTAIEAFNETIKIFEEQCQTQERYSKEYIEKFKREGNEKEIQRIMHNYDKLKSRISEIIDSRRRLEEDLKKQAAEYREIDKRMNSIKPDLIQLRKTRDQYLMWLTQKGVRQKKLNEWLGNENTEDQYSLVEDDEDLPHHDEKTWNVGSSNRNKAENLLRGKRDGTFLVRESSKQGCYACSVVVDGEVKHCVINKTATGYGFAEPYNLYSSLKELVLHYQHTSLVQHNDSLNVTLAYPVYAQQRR
Chain of PI3K-α (PIK3CA) in MDA-MB-453 cells (P27986 2-724): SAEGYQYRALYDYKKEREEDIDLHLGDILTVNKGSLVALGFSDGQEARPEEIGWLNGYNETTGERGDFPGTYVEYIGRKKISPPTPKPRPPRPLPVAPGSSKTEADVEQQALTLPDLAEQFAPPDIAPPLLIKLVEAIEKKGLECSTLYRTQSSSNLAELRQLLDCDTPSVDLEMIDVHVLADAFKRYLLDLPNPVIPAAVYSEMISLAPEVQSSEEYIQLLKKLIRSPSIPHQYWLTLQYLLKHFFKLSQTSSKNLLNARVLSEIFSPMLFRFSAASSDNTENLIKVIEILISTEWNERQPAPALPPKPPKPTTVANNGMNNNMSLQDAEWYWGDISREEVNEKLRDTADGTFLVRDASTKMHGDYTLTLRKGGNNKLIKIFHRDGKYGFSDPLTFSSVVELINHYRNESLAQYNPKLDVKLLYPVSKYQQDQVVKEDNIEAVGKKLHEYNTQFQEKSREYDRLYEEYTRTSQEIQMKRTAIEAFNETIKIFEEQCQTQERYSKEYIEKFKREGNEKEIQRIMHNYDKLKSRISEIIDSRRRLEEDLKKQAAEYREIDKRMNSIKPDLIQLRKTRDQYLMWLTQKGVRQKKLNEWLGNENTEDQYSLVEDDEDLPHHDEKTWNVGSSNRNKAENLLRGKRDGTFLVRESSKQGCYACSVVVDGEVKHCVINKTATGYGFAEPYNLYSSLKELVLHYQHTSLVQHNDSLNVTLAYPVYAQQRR
Chain of PI3K-α (PIK3CA) in MDA-MB-453 cells (P42336 whole entry): as the sequence (P42336 whole entry H1047R) above, with R1047H counted along it

In the case of `Cc1cc(C(C)Nc2ccccc2C(=O)O)c2oc(-c3ccc4cn(C)nc4c3)cc(=O)c2c1` (single isomer, unassigned) [Example 1, 2-[1-[6-Methyl-2-(2-methylindazol-6-yl)-4-oxo-chromen-8-yl]ethylamino]benzoic acid], the pIC50 is 5.30 to 6.00 in assay [1] (Soy PI lipid substrate), over 6.30 in assay [2] (Soy PI lipid substrate) and 7.00 to 7.30 in assay [3].
Turning to `Cc1cc(C(C)Nc2ccccc2C(=O)O)c2oc(-c3cc4ccncc4o3)cc(=O)c2c1` (stereo not drawn) [Example 7, 2-[1-(2-Furo[2,3-c]pyridin-2-yl-6-methyl-4-oxo-chromen-8-yl)ethylamino]benzoic acid], the pIC50 in assay [1] (setting [4]) was over 6.30; in assay [2] (setting [4]), over 6.30; in assay [3], 7.00 to 7.30.
On to `Cc1cn2cc(-c3cc(=O)c4cc(F)cc(C(C)Nc5ccccc5C(=O)O)c4o3)ccc2n1` (single isomer, unassigned) [Example 51, 2-[1-[6-Fluoro-2-(2-methylimidazo[1,2-a]pyridin-6-yl)-4-oxo-chromen-8-yl]ethylamino]benzoic acid], for which the figures for the pIC50 in assay [1] (Soy PI lipid substrate), in assay [2] (Soy PI lipid substrate) and in assay [3] were 5.30 to 6.00, over 6.30 and over 7.30, respectively.
Consider `Cc1cc(C(C)Nc2ccccc2C(=O)O)c2oc(-c3cc4ccccc4[nH]3)cc(=O)c2c1` (single isomer, unassigned) [Example 68, 2-[1-[2-(1H-Indol-2-yl)-6-methyl-4-oxo-chromen-8-yl]ethylamino]benzoic acid], for which the figures for the pIC50 in assay [1] (Soy PI lipid substrate), in assay [2] (Soy PI lipid substrate) and in assay [3] were 6.00 to 6.30, over 6.30 and over 7.30, respectively.
Turning to `Cc1cc(C(C)Nc2ccc(Cl)nc2C(=O)O)c2oc(-c3ccc4nc(C)cn4c3)c(C)c(=O)c2c1` (single isomer, unassigned) [Example 178, 6-Chloro-3-[1-[3,6-dimethyl-2-(2-methylimidazo[1,2-a]pyridin-6-yl)-4-oxo-chromen-8-yl]ethylamino]pyridine-2-carboxylic acid], the pIC50 in assay [1] (Soy PI lipid substrate) was 6.00 to 6.30; in assay [2] (Soy PI lipid substrate), over 6.30; in assay [3], 7.00 to 7.30.
Take `Cc1cc(C(C)Nc2ccccc2C(=O)O)c2oc(-c3cnn4ccccc34)cc(=O)c2c1` (single isomer, unassigned) [Example 125, 2-[1-(6-Methyl-4-oxo-2-pyrazolo[1,5-a]pyridin-3-yl-chromen-8-yl)ethylamino]benzoic acid]: the pIC50 in assay [1] (Soy PI lipid substrate) was 5.30 to 6.00; in assay [2] (Soy PI lipid substrate), over 6.30; in assay [3], over 7.30.
Consider `Cc1cc([C@@H](C)Nc2cccnc2C(=O)O)c2oc(-c3ccc4nn(C)cc4c3)c(C)c(=O)c2c1` [Example 240, 3-[[(1R)-1-[3,6-Dimethyl-2-(2-methylindazol-5-yl)-4-oxo-chromen-8-yl]ethyl]amino]pyridine-2-carboxylic acid], for which the pIC50 was 5.30 to 6.00 in assay [1] (Soy PI lipid substrate), 6.00 to 6.30 in assay [2] (Soy PI lipid substrate) and 7.00 to 7.30 in assay [3].
For `Cc1cc(C(C)Nc2ccccc2C(=O)O)c2oc(-c3ccc4nn(C)cc4n3)cc(=O)c2c1` (single isomer, unassigned) [Example 54, 2-[1-[6-Methyl-2-(2-methylpyrazolo[4,3-b]pyridin-5-yl)-4-oxo-chromen-8-yl]ethylamino]benzoic acid], the results for the pIC50 in assay [1] (Soy PI lipid substrate), in assay [2] (Soy PI lipid substrate) and in assay [3] were 5.30 to 6.00, over 6.30 and over 7.30, respectively.
Regarding `Cc1cc([C@@H](C)Nc2ccc(Cl)nc2C(=O)O)c2oc(-c3cc4cccnc4[nH]3)c(C)c(=O)c2c1` [Example 247, 6-Chloro-3-[[(1R)-1-[3,6-dimethyl-4-oxo-2-(1H-pyrrolo[2,3-b]pyridin-2-yl)chromen-8-yl]ethyl]amino]pyridine-2-carboxylic acid], the pIC50 is over 6.30 in assay [1] (Soy PI lipid substrate), over 6.30 in assay [2] (Soy PI lipid substrate) and over 7.30 in assay [3].
`Cc1cc([C@@H](C)Nc2cccc(F)c2C(=O)O)c2oc(-c3ccc4cc[nH]c4n3)cc(=O)c2c1` [Example 241, 2-Fluoro-6-[[(1R)-1-[6-methyl-4-oxo-2-(1H-pyrrolo[2,3-b]pyridin-6-yl)chromen-8-yl]ethyl]amino]benzoic acid]: the pIC50 in assay [1] (Soy PI lipid substrate) is 6.00 to 6.30; in assay [2] (Soy PI lipid substrate), over 6.30; in assay [3], 7.00 to 7.30.
The corresponding values for `Cc1cc(C(C)Nc2cccc(F)c2C(=O)O)c2oc(-c3nn(C)c4ccccc34)cc(=O)c2c1` (single isomer, unassigned) [Example 189, 2-Fluoro-6-[1-[6-methyl-2-(1-methylindazol-3-yl)-4-oxo-chromen-8-yl]ethylamino]benzoic acid] are 6.00 to 6.30, over 6.30 and 7.00 to 7.30.
For `Cc1cc(C(C)Nc2ccccc2C(=O)O)c2oc(-c3cc4ccncc4o3)c(C)c(=O)c2c1` (single isomer, unassigned) [Example 151, 2-[1-(2-Furo[2,3-c]pyridin-2-yl-3,6-dimethyl-4-oxo-chromen-8-yl)ethylamino]benzoic acid], the pIC50 in assay [1] (Soy PI lipid substrate) is 6.00 to 6.30; in assay [2] (Soy PI lipid substrate), over 6.30; in assay [3] it was over 7.30.
For `Cc1cc([C@@H](C)Nc2ccc(Cl)cc2C(=O)O)c2oc(-c3ccc4cnn(C)c4c3)cc(=O)c2c1` [Example 237, 5-Chloro-2-[[(1R)-1-[6-methyl-2-(1-methylindazol-6-yl)-4-oxo-chromen-8-yl]ethyl]amino]benzoic acid] the same measures were 6.00 to 6.30, over 6.30 and 7.00 to 7.30.
As to `Cc1cc([C@@H](C)Nc2ccc(Cl)nc2C(=O)O)c2oc(-c3cc4cnccc4o3)c(C)c(=O)c2c1` [Example 214, 6-Chloro-3-[[(1R)-1-(2-furo[3,2-c]pyridin-2-yl-3,6-dimethyl-4-oxo-chromen-8-yl)ethyl]amino]pyridine-2-carboxylic acid], the results for the pIC50 in assay [1] (Soy PI lipid substrate), in assay [2] (Soy PI lipid substrate) and in assay [3] were over 6.30, over 6.30 and over 7.30, respectively.
Turning to `Cc1cc(C(C)Nc2ccc(Cl)nc2C(=O)O)c2oc(-c3nn(C)c4ccccc34)c(C)c(=O)c2c1` (single isomer, unassigned) [Example 170, 6-Chloro-3-[1-[3,6-dimethyl-2-(1-methylindazol-3-yl)-4-oxo-chromen-8-yl]ethylamino]pyridine-2-carboxylic acid], the values for the pIC50 in assay [1] (Soy PI lipid substrate), in assay [2] (Soy PI lipid substrate) and in assay [3] were over 6.30, over 6.30 and over 7.30, respectively.
Consider `Cc1cc([C@@H](C)Nc2ccc(Br)nc2C(=O)O)c2oc(-c3ccc4nc(C)sc4n3)c(C)c(=O)c2c1` [Example 245, 6-Bromo-3-[[(1R)-1-[3,6-dimethyl-2-(2-methylthiazolo[5,4-b]pyridin-5-yl)-4-oxo-chromen-8-yl]ethyl]amino]pyridine-2-carboxylic acid], for which the results for the pIC50 in assay [1] (Soy PI lipid substrate), in assay [2] (Soy PI lipid substrate) and in assay [3] were over 6.30, over 6.30 and over 7.30, respectively.
For the compound `Cc1cc([C@@H](C)Nc2ccc(C)nc2C(=O)O)c2oc(-c3ccc4nc(C)sc4n3)cc(=O)c2c1` [Example 250, 6-Methyl-3-[[(1R)-1-[6-methyl-2-(2-methylthiazolo[5,4-b]pyridin-5-yl)-4-oxo-chromen-8-yl]ethyl]amino]pyridine-2-carboxylic acid], the pIC50 in assay [1] (Soy PI lipid substrate) is 5.00 to 5.30; in assay [2] (Soy PI lipid substrate), 5.30 to 6.00; in assay [3], 6.30 to 7.00.

Broadly, the pIC50 is −log10 of the IC50, conventionally taken in molar units.
